Like-named read-outs stand apart in the source and are kept apart here.
How the values were obtained:
Escherichia coli = assay: Antibacterial agar-well diffusion; type: cell-based; conditions: sample 100 mg/5 mL in DMSO; ceftriaxone sodium 20 mg/10 mL; 37 °C, 24 h; 6 mm wells
Procedure: (§1) After sterilizing the Mueller Hinton agar medium on plates in an autoclave and allowing it to cool to roughly 45 °C, a 100 µL standard inoculum was aseptically mixed, chilled till 37 °C, and 6 mm wells were formed in the inoculated plates. The volume of 100 μL (100 mg/5 mL in DMSO), ceftriaxone sodium (20 mg/10 mL in DMSO) as a positive control, and pure DMSO as a negative control; 30 μL of the sample solution was incorporated into these wells. These primed plates were incubated at 37 °C for 24 h prior to record inhibitory zones in millimeters.

Staphylococcus aureus = assay: Antibacterial agar-well diffusion; type: cell-based; conditions: sample 100 mg/5 mL in DMSO; ceftriaxone sodium 20 mg/10 mL; 37 °C, 24 h; 6 mm wells
Procedure: as §1

Bacillus pumilus = assay: Antibacterial agar-well diffusion; type: cell-based; conditions: sample 100 mg/5 mL in DMSO; ceftriaxone sodium 20 mg/10 mL; 37 °C, 24 h; 6 mm wells
Procedure: as §1

Pseudomonas aeruginosa = assay: Antibacterial agar-well diffusion; type: cell-based; conditions: sample 100 mg/5 mL in DMSO; ceftriaxone sodium 20 mg/10 mL; 37 °C, 24 h; 6 mm wells
Procedure: as §1

thoracic aorta segments = assay: Inhibition of phenylephrine-induced contraction on isolated aorta rings; parameters: species or system male Wistar rats; conditions: compounds 10^−4 M in organ bath, phenylephrine 10^−6 M, n = 5; for inhibition at 100 µM: Rattus norvegicus, read-out: %ge inh. of Phenylephrine Cont. (±SEM)
Procedure: (§2) Cervical disruption was used to eliminate male Wistar rats weighing 200 g and 300 g. The thoracic aorta segments (3 mm to 5 mm) were slightly pressed and […]. The tissues were placed in an organ bath filled with 10 mL of Krebs-Henseleit solution and kept at 37 °C. Then 95% oxygen and 5% carbon dioxide were passed through the above-mentioned solution. To record organ responses to phenylephrine, (10^−6 M) (Sigma, St. Louis, MO, USA) simulated contractions; isometric transducers and Gemini recorders (Ugo Basile, Varese, Italy) were assembled. Aortic rings were recon traced with phenylephrine (10^−6 M) and subjected to acetylcholine (10^−6 M) for recording endothelium-dependent relaxations (EDR). All synthesized compounds along with the standard (valsartan) were mixed in DMSO; whereas synthesized derivatives of concentration 10^−4 M were added in an organ bath. In conscious rats, systolic blood pressure was recorded by applying the tail-cuff method. Wistar rats of 200 g to 250 g weight were selected and divided into groups of five individuals. The chemicals were injected intraperitoneally at a dosage of 80 mg/kg body weight. The tail-cuff and a piezoelectric pulse sensor were coupled to a blood pressure analyzer and were positioned at the base of the tail (May 9610, Ankara, Turkey).
(§3) All results were presented as the mean of SEM. (n = 5) and test compounds were employed for statistical significance determination.

urease = urease (Canavalia ensiformis, UniProt P07374); assay: biochemical; type: biochemical; conditions: for folds more urease inhibition than standard Thiourea: relative to Thiourea IC50
Procedure: The activity performed was an improved procedure of the Berthelot assay. […] For 5 min, the mixture was incubated at 37 °C. Each well in a 96-well plate received 40 µL of urea stock solution (20 mM); incubated for 10 min at 37 °C. Afterwards, 115 µL phenol hypochlorite (45 µL phenol + 70 µL alkali) per well was added. Furthermore, all the contents were incubated for 10 min at 37 °C. Absorbance at 625 nm was measured. Using the provided formula, the % of enzyme-inhibition and IC-50 values were computed Inhibition (%age) = [Control − test/100(control)] where Control = [Total enzyme activity minus inhibitor]. The test is the test compounds’ activity

[1] = DPPH free radical scavenging assay; conditions: 1.0 mL sample 0.5 mg/mL + 2 mL DPPH 0.2 mg/mL, 30 min, 517 nm
Procedure: The DPPH assay was carried out to estimate the antioxidant potential among all the compounds [29]. Then, 2 mL (0.2 mg/mL in methyl alcohol) of DPPH was mixed with 1.0 mL (0.5 mg/mL in methyl alcohol) of the sample solution in a test tube. All the reaction tubes were covered with aluminum foil and kept aside for 30 min to complete the reaction. The activity was carried out in a dark room. […] A UV-visible spectrophotometer was employed to observe a reduction in the concentration of free radicals at 517 nm. The absorbance of the control (1.0 mL methanol + 2 mL DPPH solution) was also measured. All samples were evaluated in a triplicate manner, and the mean results were recorded. The standard antioxidant (ascorbic acid) was evaluated and set as a reference/standard. The percentage of inhibition (%) was calculated using the following formula in terms of scavenging activity(S):S (%) = [(Ab − Aa)/Ab] × 100(1) where Ab = Absorbance of control; and Aa = Absorbance of the test sample

conscious rats = assay: Antihypertensive effect, systolic blood pressure by tail-cuff method in conscious rats; type: in vivo, Wistar rats; conditions: 80 mg/kg intraperitoneally, n = 5, Control 108.28 ± 6.87, DMSO 81.10 ± 3.21
Procedure: as §2, §3

[2] = urease, pH 7.0, 37 °C, read-out: IC50 ± SEM

Chain of urease (P07374 whole entry, looked up): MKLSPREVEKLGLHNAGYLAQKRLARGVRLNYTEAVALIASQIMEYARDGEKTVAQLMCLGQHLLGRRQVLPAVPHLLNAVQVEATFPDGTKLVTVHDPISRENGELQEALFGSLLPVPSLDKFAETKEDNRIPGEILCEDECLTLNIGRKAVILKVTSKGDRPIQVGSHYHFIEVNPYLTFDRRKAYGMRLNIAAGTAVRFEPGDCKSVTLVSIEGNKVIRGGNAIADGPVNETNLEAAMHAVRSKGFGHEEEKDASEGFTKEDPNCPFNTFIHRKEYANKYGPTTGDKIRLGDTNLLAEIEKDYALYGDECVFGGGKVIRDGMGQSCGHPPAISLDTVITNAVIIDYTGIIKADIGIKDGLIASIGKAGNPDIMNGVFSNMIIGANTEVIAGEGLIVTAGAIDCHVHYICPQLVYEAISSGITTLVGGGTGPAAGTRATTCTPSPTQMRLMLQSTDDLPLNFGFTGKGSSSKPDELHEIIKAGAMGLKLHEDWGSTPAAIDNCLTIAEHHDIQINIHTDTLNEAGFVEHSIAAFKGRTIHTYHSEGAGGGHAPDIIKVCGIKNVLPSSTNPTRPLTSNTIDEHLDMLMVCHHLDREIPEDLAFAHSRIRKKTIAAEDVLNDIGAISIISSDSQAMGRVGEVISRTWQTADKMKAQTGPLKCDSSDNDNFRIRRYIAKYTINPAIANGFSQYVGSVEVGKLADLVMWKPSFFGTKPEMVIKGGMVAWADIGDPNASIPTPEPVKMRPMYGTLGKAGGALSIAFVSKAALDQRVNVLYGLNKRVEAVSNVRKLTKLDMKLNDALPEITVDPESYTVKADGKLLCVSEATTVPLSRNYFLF

| Compound | Zone of Inhibition Gram -Ve Bacteria E. coli Mean ± SEM (Escherichia coli) [millimeters] | Zone of Inhibition Gram +ve Bacteria S. aureus Mean ± SEM (Staphylococcus aureus) [millimeters] | Zone of Inhibition Gram +ve Bacteria B.pumilus Mean ± SEM (Bacillus pumilus) [millimeters] | Zone of Inhibition Gram -Ve Bacteria P. aeruginosa Mean ± SEM (Pseudomonas aeruginosa) [millimeters] | %ge inh. of Phenylephrine Cont. (±SEM) (thoracic aorta segments) [%] | folds more urease inhibition than standard Thiourea (urease) [folds] | IC50 (urease; [2]) [nM] | %Age Inhibition ± SEM [1] [%] | inhibition at 100 µM (thoracic aorta segments) [%] | IC50 (urease) [nM] | Mean of Systolic Blood Pressure ± SEM (conscious rats) |
| --- | --- | --- | --- | --- | --- | --- | --- | --- | --- | --- | --- |
| CO/N=C(\C(=O)N[C@@H]1C(=O)N2C(C(=O)O)=C(CSc3nc(=O)c(=O)[nH]n3C)CS[C@H]12)c1csc(N)n1 [Ceftriaxone, ceftriaxone sodium, reference compound] | 21.90 ± 0.18 | 24.60 ± 0.51 | 22.13 ± 0.14 | 23.33 ± 0.43 |  |  |  |  |  |  |  |
| CCCCC(=O)N(Cc1ccc(-c2ccccc2-c2nn[nH]n2)cc1)C(C(=O)Oc1ccc(C=O)cc1OC)C(C)C (stereo not drawn) [AV2, 4-formyl-2-methoxyphenyl 2(N-((2′-(2H-tetrazole-5-yl)-[1,1′-biphenyl]-4yl)methyl)pentanamido)-3-methyl butanoate] | 11.90 ± 0.26 | 12.90 ± 0.81 | 12.26 ± 0.69 | 09.33 ± 0.58 | 76.4 ± 6.8 | 4 | 280 ± 150 | 96.0 ± 0.49 |  |  |  |
| CCCCC(=O)N(Cc1ccc(-c2ccccc2-c2nn[nH]n2)cc1)C(C(=O)O)C(C)C (stereo not drawn) [AV0, 2-(N-((2′-(2H-tetrazole-5-yl)-[1,1′-biphenyl]-4yl)-methyl)-pentanamido)-3-methyl butanoic acid, reference compound] | 10.40 ± 0.69 | 12.13 ± 0.72 | 11.36 ± 0.49 | 12.43 ± 0.67 |  |  |  | 64.6± 0.50 | 65.3 ± 3.6 | 3210 ± 950 | 82.41 ± 4.32 |
| O=C1O[C@H]([C@@H](O)CO)C(O)=C1O [Ascorbic acid, reference compound] |  |  |  |  |  |  |  | 96.4 ± 0.52 |  |  |  |
| CCCCC(=O)N(Cc1ccc(-c2ccccc2-c2nn[nH]n2)cc1)C(C(=O)OC(C(=O)c1ccccc1)c1ccccc1)C(C)C (stereo not drawn) [AV1, 2-oxo-1,2-diphenylethyl 2-(N-((2′-(2H-tetrazol-5yl)-[1,1′-biphenyl]-4-yl)methyl)pentanamido)-3methyl butanoate] | 11.06 ± 0.55 | 10.83 ± 0.31 | 10.33 ± 0.40 | 10.36 ± 0.28 | 67.3 ± 4.7 |  | 2560 ± 320 | 73.9 ± 0.49 |  |  | 81.78 ± 3.87 |
| CCCCC(=O)N(Cc1ccc(-c2ccccc2-c2nnn[nH]2)cc1)C(C(=O)Oc1ccc(N)cc1)C(C)C (stereo not drawn) [AV4, 4-aminophenyl 2-(N-((2′-(2H-tetrazol-5yl) -[1,1′-biphenyl]-4yl)methyl)pentanamido)-3methyl butanoate] | 10.63 ± 0.40 | 10.16 ± 0.17 | 10.46 ± 0.67 | 10.31 ± 0.47 |  |  |  |  | 69.4 ± 5.4 | 3190 ± 950 | 79.56 ± 2.78 |
| CCCCC(=O)N(Cc1ccc(-c2ccccc2-c2nn[nH]n2)cc1)C(C(=O)Oc1ccc(Cl)cc1Cl)C(C)C (stereo not drawn) [AV5, 2,4-dichlorophenyl 2-(N-((2′-(2H-tetrazol-5yl)-[1,1′-biphenyl]-4 yl)methyl)pentanamido)-3methyl butanoate] | 11.36 ± 0.63 | 13.50 ± 0.50 | 11.23 ± 0.61 | 09.36 ± 0.85 | 66.2 ± 4.2 | 3 | 1290 ± 120 | 73.1 ± 0.49 |  |  | 81.92 ± 5.21 |
| NC(N)=S [Standard Thiourea, Thiourea, reference compound] |  |  |  |  |  |  | 4240 ± 130 |  |  |  |  |
| CCCCC(=O)N(Cc1ccc(-c2ccccc2-c2nn[nH]n2)cc1)C(C(=O)Oc1ccc(CC(N)C(=O)O)cc1)C(C)C (stereo not drawn) [AV7, 3-(4-((2-(N-((2′-(2H-tetrazol-5yl)-[1,1′-biphenyl]-4 yl)methyl)pentanamido)-3methylbutanoyl)oxy)phenyl)-2amino-propanoic acid] | 10.96 ± 0.18 | 12.10 ± 0.37 | 11.13 ± 0.80 | 10.76 ± 0.53 |  |  |  |  | 62.4 ± 2.7 | 8590 ± 1120 | 85.61 ± 3.32 |
| CCCCC(=O)N(Cc1ccc(-c2ccccc2-c2nn[nH]n2)cc1)C(C(=O)Oc1cccc2ccccc12)C(C)C (stereo not drawn) [AV9, naphthalen-1-yl 2-(N-((2′-(2H-tetrazol-5-yl)-[1,1′-biphenyl]-4 yl)methyl)pentanamido)-3methyl butanoate] | 09.73 ± 0.23 | 14.40 ± 0.37 | 12.76 ± 0.84 | 10.90 ± 0.40 | 68.3 ± 4.7 |  | 2260 ± 1040 | 83.8 ± 0.64 |  |  |  |

Reference: PMC9959676 (Molecules, 2023)
